For data set [1], the system named is Salmonella typhimurium. The data set is described as follows: Toxicity in Salmonella Typhimurium TA98 at 150 ug/plate in presence of liver S9 fraction by Ames test. The class given is organism-based. The settings on record: salmonella enterica subsp. enterica serovar typhimurium. (In the Ames test, an excess of revertant colonies over the control signals mutagenicity.)

For data set [2], the system named is Salmonella typhimurium. The data set is described as follows: Toxicity in Salmonella Typhimurium TA98 at 300 ug/plate in presence of liver S9 fraction by Ames test. The class given is organism-based. To be noted: salmonella enterica subsp. enterica serovar typhimurium.

For the compound `C=C1C(=O)O[C@@H]2C[C@@]3(C)CCCC(=C)[C@@H]3C[C@H]12` [ISOALANTOLACTONE], the Activity result in the data set with Salmonella typhimurium [1] and in the data set with Salmonella typhimurium [2] was “Toxic” in each case.
As for `C=C1CCC[C@]2(C)C[C@H]3OC(=O)[C@@H](C)[C@H]3C[C@@H]12` [DIHYDROISOALANTOLACTONE], the Activity entry in the data set with Salmonella typhimurium [1] and in the data set with Salmonella typhimurium [2] was “Non-toxic” in each case.
